Experimental data: patent publication US12421249B2, “Inhibitors of APOL1 and methods of using same” (Vertex Pharmaceuticals Incorporated, priority 2020, dated 2025)
Like-named read-outs stand apart in the source and are kept apart here.

Legend:
[1] = biological target: T1, APOL1 (Homo sapiens, UniProt O14791); test: Multi-Tox Assay (MultiTox-Fluor Multiplex Cytotoxicity Assay in tet-inducible APOL1 T-REx-HEK293 cells; Table 46 does not say which APOL1 variant G0/G1/G2); format: cell-based; conditions: APOL1 variant not given; for IC50: IP50 = IC50 for cell proliferation
T1 sequence (O14791 1-398 S342G/I384M): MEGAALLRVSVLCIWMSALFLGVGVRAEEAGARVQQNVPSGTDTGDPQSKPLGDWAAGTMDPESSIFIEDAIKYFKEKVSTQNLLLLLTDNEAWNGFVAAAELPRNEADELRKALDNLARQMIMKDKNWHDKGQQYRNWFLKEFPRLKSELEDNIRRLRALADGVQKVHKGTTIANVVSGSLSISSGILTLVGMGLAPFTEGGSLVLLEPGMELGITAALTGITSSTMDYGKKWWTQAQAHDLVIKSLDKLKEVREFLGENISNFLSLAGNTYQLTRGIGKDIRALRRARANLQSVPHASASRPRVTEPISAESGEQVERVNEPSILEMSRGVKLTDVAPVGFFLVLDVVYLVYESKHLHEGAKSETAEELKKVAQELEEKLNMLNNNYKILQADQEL

[2] = biological target: T2, APOL1 G1 (Homo sapiens, UniProt O14791, I384M/S342G); test: Trypanosoma brucei brucei Lysis Assay Using APOL1 Recombinant Protein (AlamarBlue viability readout); format: cell-based; conditions: for IC50: IP50 = IC50 for cell proliferation, read-out: Trypanosome Assay IP50; for Emax: read-out: Trypanosome Assay Max Activity (%)
T2 sequence (O14791 28-398 S342G/I384M): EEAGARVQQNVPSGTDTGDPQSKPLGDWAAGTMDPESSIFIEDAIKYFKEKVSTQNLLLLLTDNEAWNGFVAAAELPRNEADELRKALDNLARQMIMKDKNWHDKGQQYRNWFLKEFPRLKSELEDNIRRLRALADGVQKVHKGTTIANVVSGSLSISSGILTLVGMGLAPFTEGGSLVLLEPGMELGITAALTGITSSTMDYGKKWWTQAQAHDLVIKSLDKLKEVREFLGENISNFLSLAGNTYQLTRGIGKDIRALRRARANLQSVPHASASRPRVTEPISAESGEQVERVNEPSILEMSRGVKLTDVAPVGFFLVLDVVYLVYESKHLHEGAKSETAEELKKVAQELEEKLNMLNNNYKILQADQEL
Summary of the method: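 Percent viability comes from AlamarBlue (resazurin→resorufin) fluorescence interpolated on a standard curve of known parasite numbers, with no-APOL1 wells as 100%. Parasites (Lister 427 bloodstream form, 120,000/well, serum-free assay medium) meet 0.05 μg/mL APOL1 (~EC90). Compounds span a 10-point series, 0.1% DMSO final.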

| SMILES | Multi-Tox Assay Max Activity (%) [1] [%] | IC50 [1] [nM] | IC50 ([2]; Trypanosome Assay) [nM] | Emax ([2]; Trypanosome Assay) [%] | Emax [2] [%] | IC90 [1] [nM] | Trypanosome Assay Max Activity (%) ([2]; Trypanosome Assay) |
| --- | --- | --- | --- | --- | --- | --- | --- |
| CCc1c[nH]c([C@@H]2C[C@]3(C[C@H](C)N2)OCCc2cc(Cl)sc23)n1 (racemic) [Compound 153] | 96.0 | 50 to 500 | > 500 | 89.5 | – | – | – |
| COc1nn(C)cc1[C@@H]1C[C@]2(C[C@H](C)N1)OCCc1cc(Cl)sc12 (racemic) [Compound 154] | – | > 500 | > 500 | 96.5 | – | – | – |
| Cc1coc([C@@H]2C[C@]3(C[C@H](C)N2)OCCc2cc(Cl)sc23)n1 (racemic) [Compound 155] | – | 50 to 500 | > 500 | 97 | – | – | – |
| Cc1nc([C@@H]2C[C@]3(C[C@H](C)N2)OCCc2cc(Cl)sc23)c[nH]1 (racemic) [Compound 156] | – | > 500 | > 500 | 85 | – | – | – |
| Cc1ncoc1[C@@H]1C[C@]2(C[C@H](C)N1)OCCc1cc(Cl)sc12 (racemic) [Compound 157] | 96.3 | 50 to 500 | > 500 | 95 | – | – | – |
| Cc1nn(CCO)cc1[C@@H]1C[C@]2(C[C@H](C)N1)OCCc1cc(Cl)sc12 (racemic) [Compound 158] | – | > 500 | > 500 | 75.5 | – | – | – |
| Cc1nc([C@@H]2C[C@]3(C[C@H](C)N2)OCCc2cc(Cl)sc23)cn1C (racemic) [Compound 159] | – | > 500 | > 500 | 63.5 | – | – | – |
| C[C@H]1C[C@@]2(C[C@@H](c3cnccc3O)N1)OCCc1cc(Cl)sc12 (racemic) [Compound 160] | – | > 500 | > 500 | 97.5 | – | – | – |
| Cc1nc[nH]c1[C@@H]1C[C@]2(C[C@H](C)N1)OCCc1cc(Cl)sc12 (racemic) [Compound 161] | – | > 500 | > 500 | 73 | – | – | – |
| CC(C)c1c[nH]c([C@@H]2C[C@]3(C[C@H](C)N2)OCCc2cc(Cl)sc23)n1 (racemic) [Compound 162] | – | > 500 | > 500 | 81 | – | – | – |
| C[C@H]1C[C@@]2(C[C@@H](c3cnn4c3OCCC4)N1)OCCc1cc(Cl)sc12 (racemic) [Compound 163] | – | > 500 | > 500 | 79.5 | – | – | – |
| Cc1nccnc1[C@@H]1C[C@]2(C[C@H](C)N1)OCCc1cc(Cl)sc12 (racemic) [Compound 164] | – | > 500 | > 500 | 85 | – | – | – |
| C[C@H]1C[C@@]2(C[C@@H](c3ncc(C(F)(F)F)[nH]3)N1)OCCc1cc(Cl)sc12 (racemic) [Compound 165] | 92.0 | > 500 | > 500 | 61 | – | – | – |
| COc1cccc([C@@H]2C[C@]3(C[C@H](C)N2)OCCc2cc(Cl)sc23)c1O (racemic) [Compound 166] | – | > 500 | > 500 | 57.5 | – | – | – |
| Cc1cccnc1[C@@H]1C[C@]2(C[C@H](C)N1)OCCc1cc(Cl)sc12 (racemic) [Compound 167] | – | > 500 | > 500 | 73 | – | – | – |
| C[C@H]1C[C@@]2(C[C@@H](c3cccc4cn[nH]c34)N1)OCCc1cc(Cl)sc12 (racemic) [Compound 168] | – | > 500 | > 500 | 54.5 | – | – | – |
| C[C@H]1C[C@@]2(C[C@@H](c3n[nH]c4ccccc34)N1)OCCc1cc(Cl)sc12 (racemic) [Compound 169] | – | > 500 | > 500 | 61 | – | – | – |
| Cc1nc2c([C@@H]3C[C@]4(C[C@H](C)N3)OCCc3cc(Cl)sc34)cccc2o1 (racemic) [Compound 170] | 89.7 | > 500 | > 500 | 71.5 | – | – | – |
| C[C@H]1C[C@@]2(C[C@@H](c3ncnn3C)N1)OCCc1cc(Cl)sc12 (racemic) [Compound 171] | – | > 500 | > 500 | 14 | – | – | – |
| C[C@H]1C[C@@]2(C[C@@H](c3ncccc3O)N1)OCCc1cc(Cl)sc12 (racemic) [Compound 172] | – | > 500 | > 500 | 64.5 | – | – | – |

| SMILES | Multi-Tox Assay Max Activity (%) [1] [%] | IC50 [1] [nM] | IC50 ([2]; Trypanosome Assay) [nM] | Emax ([2]; Trypanosome Assay) [%] | Emax [2] [%] | IC90 [1] [nM] | Trypanosome Assay Max Activity (%) ([2]; Trypanosome Assay) |
| --- | --- | --- | --- | --- | --- | --- | --- |
| C[C@@H]1C[C@]2(C[C@H](C)N1)OCC(O)c1cc(Cl)sc12 (mixture of isomers) [Compound 205, (2R,6S)-2-chloro-2′,6′-dimethyl-spiro[4,5-dihydrothieno[2,3-c]pyran-7,4′-piperidine]-4-ol] | – | < 50 | 50 to 500 | – | 106 | – | – |
| C[C@@H]1CC2(C[C@@H](c3cn(C)nn3)N1)OCCc1cc(Cl)sc12 (single isomer, unassigned) [Compound 7] | – | 50 to 500 | > 500 | 92 | – | 50 to 500 | – |
| C[C@H]1CC2(C[C@@H](c3cn(C)nn3)N1)OCCc1sc(Cl)cc12 (single isomer, unassigned) [Compound 173] | – | < 50 | < 50 | 116 | – | – | – |
| C[C@H]1CC2(CC(c3cnn(C)c3)N1)OCC(O)c1cc(Cl)sc12 (single isomer, unassigned) [Compound 175] | 100.0 | < 50 | < 50 | 106 | – | < 50 | – |
| C[C@H]1CC2(CC(c3cnn(C)c3)N1)OCC(O)c1cc(Cl)sc12 (single isomer, unassigned) [Compound 176] | 100.0 | < 50 | < 50 | – | – | < 50 | 115.5 |
| C[C@H]1C[C@@]2(C[C@@H](c3cn(C)nn3)N1)OCC(O)(C(F)F)c1cc(Cl)sc12 (single isomer, unassigned) [Compound 184] | – | < 50 | 50 to 500 | – | – | – | – |
| C[C@H]1C[C@@]2(C[C@@H](c3cn(C)nn3)N1)OCC(O)(C(F)F)c1cc(Cl)sc12 (single isomer, unassigned) [Compound 185] | 99.5 | < 50 | 50 to 500 | – | – | < 50 | 99.0 |
| C[C@@H]1CC2(C[C@H](C)N1)OCCc1sc(C(F)(F)F)cc12 (single isomer, unassigned) [Compound 196] | – | 50 to 500 | 50 to 500 | 111 | – | – | – |
| C[C@@H]1CC2(C[C@H](C)N1)OCCc1cc(Br)sc12 (single isomer, unassigned) [Compound 197] | – | 50 to 500 | 50 to 500 | – | 106 | – | – |
| C[C@@H]1CC2(C[C@H](C)N1)OCCc1cc(C3CC(F)(F)C3)sc12 (single isomer, unassigned) [Compound 198] | – | 50 to 500 | 50 to 500 | – | – | – | – |
| CCc1cc2c(s1)C1(C[C@@H](C)N[C@@H](C)C1)OCC2 (single isomer, unassigned) [Compound 199] | – | < 50 | 50 to 500 | – | 110 | – | – |
| CC(C)c1cc2c(s1)C1(C[C@@H](C)N[C@@H](C)C1)OCC2 (single isomer, unassigned) [Compound 200] | – | 50 to 500 | 50 to 500 | – | 98.7 | – | – |
| CC(C)Cc1cc2c(s1)C1(C[C@@H](C)N[C@@H](C)C1)OCC2 (single isomer, unassigned) [Compound 201] | – | 50 to 500 | > 500 | 76.7 | – | – | – |
| C[C@@H]1CC2(C[C@H](C)N1)OCCc1cc(C3CCCCC3)sc12 (single isomer, unassigned) [Compound 202] | – | > 500 | > 500 | 19 | – | – | – |
| C[C@@H]1CC2(C[C@H](C)N1)OCCc1cc(CC(F)F)sc12 (single isomer, unassigned) [Compound 203] | – | < 50 | < 50 | 102 | – | – | – |
| C[C@@H]1CC2(C[C@H](C)N1)OCCc1cc(Cl)sc12 (single isomer, unassigned) [Compound 204] | – | 50 to 500 | 50 to 500 | – | 112 | – | – |
| Clc1cc2c(s1)C1(C[C@@H](C3CC3)N[C@@H](C3CC3)C1)OCC2 (single isomer, unassigned) [Compound 206] | – | < 50 | 50 to 500 | 104 | – | – | – |
| C[C@@H]1CC2(C[C@H](C)N1)OCCc1cc(C(F)(F)F)sc12 (single isomer, unassigned) [Compound 207] | – | < 50 | < 50 | 108 | – | – | – |
| C[C@@H]1CC2(C[C@H](C)N1)OCCc1c2sc(C(F)(F)F)c1CO (single isomer, unassigned) [Compound 208] | – | < 50 | 50 to 500 | 103 | – | – | – |
| CC1CC2(CC(C3CC3(F)F)N1)OCCc1cc(Cl)sc12 (single isomer, unassigned) [Compound 212] | – | < 50 | < 50 | 101 | – | – | – |
